{"source": "patent US20110190235A1", "about": "“BORON-CONTAINING SMALL MOLECULES AS ANTIPROTOZOAL AGENTS” (Anacor Pharmaceuticals, Inc., priority 2009, published 2011)", "assay": "Kinetic solubility by nephelometric (light scattering) method", "type": "physicochemical", "conditions": "PBS pH 7.4", "data": [{"smiles": "CC1(C)OB(O)c2cc(NC(=O)c3ccc(F)cc3C(F)(F)F)ccc21", "note": "[compound 82]", "values": [{"measurement": "Solubility", "result": 25, "unit": "µM"}]}]}
